Reference: patent US10280156B2, “Heteroaromatic chalcone derivatives and their medical use” (Medizinische Universität Wien, priority 2014, dated 2019)

System: MEC1
Assay: Viability test (CellTiter-Blue/EZ4U) on MEC1 cells, 48 h
Type: cell-based, human
Settings: Homo sapiens, MEC1, 48 h, 48 h incubation; nd = no significant cytotoxic activity up to 100 μM
Protocol: JURKAT and CCRF-CEM (T-cell acute lymphoblastic leukemia), HL60 and K562 representing acute and chronic myeloid leukemia, respectively, the chronic lymphocytic leukemia cell line MEC-1, and the diffuse large B-cell lymphoma cell line U-2940 were cultured in Gibco RPMI 1640+GlutaMAX (Life Technologies, Carlsbad, Calif., USA) supplemented with 10% fetal bovine serum gold (FBS gold; PAA Laboratories, Pasching, Austria) and 1% PenStrep (100 U/ml penicillin and 100 μg/ml streptomycin; PAA Laboratories), and maintained at 37° C. in humidified atmosphere with 5% CO2. The diffuse large B-cell lymphoma cell line OCI-LY7 was cultured in Gibco IMDM+GlutaMAX and 25 mM HEPES (Life Technologies) containing 20% FBS gold and 1% PenStrep.
All experiments with hematological cell lines were done using phenol red-free RPMI 1640+L-glutamine (PAA Laboratories) supplemented with 1% PenStrep and 10% FBS gold, except experiments with OCI-Ly7 which were carried out in Gibco IMEM+GlutaMAX and 25 mM HEPES containing 20% FBS gold and 1% PenStrep. Cells were incubated in triplicates with increasing concentrations of the compounds for 48 h, changes in viability were determined using the cell proliferation and cytotoxicity assays EZ4U (Biomedica Group, Austria) and CellTiter-Blue Cell Viability Assay (Promega, Madison, Wis., USA) following instructions of the manufacturers. IC50 values were calculated from two independent experiments using GraphPad Prism 5 software.
Initially, compounds were biologically tested in six concentration steps (0.1 μM; 1 μM; 5 μM; 10 μM; 50 μM; and 100 μM) using the CellTiter-Blue Cell Viability Assay (Promega, Madison, Wis., USA) and an incubation time of 48 hours. […] IC50 values were calculated from at least two independent experiments with 3 replicates each. In order to evaluate the biologic activity of the new compounds, cytotoxicity was compared to that of fludarabine, an already approved drug for the treatment of various B-cell malignancies. […] Differences in IC50 values for the different cell types can be explained by the biological and genetic particularities of each subtype of B-cell Non-Hodgkin lymphoma (Stacchini A et al. Leukemia Res 1999, 23, 127-136; Sambade C et al. Int J Cancer 2006, 118, 555-563; Chang H et al. Leukemia lymphoma 1995, 19, 165-171; Tweeddale M E et al. Blood 1987, 69, 1307-1314; Tweeddale M et al. Blood 1989, 74, 572-578).

CCOc1ccccc1C(=O)/C=C/c1cc2ccccc2[nH]1 [Compound 15, 1-(2-Ethoxyphenyl)-3-(1H-indole-2-yl)-2-propen-1-one]
IC50: 22 nM
